What was measured:
[1] = system: healthy volunteers; experiment: Safety and tolerability, drug-drug interaction part; assay type: in vivo, human; conditions: n = 14; for TRAE, Acetaminophen-related: acetaminophen 1000 mg; for TRAE, Rosuvastatin-related: rosuvastatin 10 mg
Description: This phase 1, randomized, double-blind, placebo-controlled study (NCT06036784) enrolled healthy adults (aged 18-65 years) with a body mass index of 18 to 30 kg/m^2, stable body weight for 3 months or longer, and without diabetes. Potential participants were ineligible if they had type 1 or type 2 diabetes or prediabetes (based on medical history, relevant concomitant medications [including oral or injectable antidiabetic medications], fasting plasma glucose concentrations ≥100 mg/dL or glycated hemoglobin concentrations ≥5.7% [American Diabetes Association thresholds for diabetes and prediabetes ([18])]).
(§1) The DDI portion of the study included 1 cohort of 14 HVs and consisted of 2 study periods. […] Blood samples were also collected to measure clearance of the endogenous biomarker for hepatic OATP inhibition, coproporphyrin-I (CP-I), to assess potential inhibition of OATP1B1/3 by imapextide. […] The primary objective of the DDI portion was to evaluate the PK of rosuvastatin and acetaminophen in the presence and absence of imapextide.
The primary objective of the SAD and MAD portions of the study was to evaluate the safety and tolerability of imapextide; safety was also evaluated in the DDI portion. Safety assessments included incidence and severity of treatment-emergent adverse events (TEAEs), changes in physical examination findings, clinical laboratory abnormalities (serum chemistry, hematology, urinalysis, and coagulation; abnormalities were defined as deviation from the laboratory normal range), and potential effect on vital sign measures. All blood samples for safety analyses were collected after an overnight fast (≥8 hours). If present, data on ISRs were collected using a dedicated form and rated on severity according to the US Food and Drug Administration toxicity scale for vaccines (for details on severity grading, see Supplementary Table S1) ([20], [21]). All ISRs were evaluated, regardless of whether they were reported as TEAEs by the investigator. In the 30-mg-R cohort, participants with ISRs grade 2 or worse underwent a dermatology consultation, including a potential skin biopsy at the discretion of the dermatologist.

[2] = system: OATP1B1/OATP1B3; experiment: Drug-drug interaction: rosuvastatin PK in presence or absence of imapextide; assay type: in vivo, human; conditions: plasma, n = 14, statistic in brackets not given
Text: as §1
Imapextide was also examined as a perpetrator of OATP1B1/3, which would affect the hepatic clearance of rosuvastatin and CP-I. PK assessments for rosuvastatin included Cmax, tmax, AUC from 0 to 72 hours (AUC0-72), and AUCinf. PK assessments for CP-I included Cmax, tmax, AUC0-72, and AUC from 0 to 108 hours (AUC0-108).

[3] = DDI Period 2 (RBX + APAP + Imapextide 45 mg)
[4] = Period 1 (RBX 10 mg + APAP 1000 mg), no imapextide
[5] = Period 2 (RBX 10 mg + APAP 1000 mg + imapextide 45 mg given 2 days before)

Compound	TRAE, Acetaminophen-related ([1]; DDI Period 1 (RBX + APAP))	TRAE, Acetaminophen-related [1, 3]	AUC0-72 [2, 4]	AUC0-inf [2, 4]	Cmax [2, 4]	tmax [2, 4]	AUC0-72 [2, 5]	AUC0-inf [2, 5]	Cmax [2, 5]	tmax [2, 5]	TRAE, Rosuvastatin-related ([1]; DDI Period 1 (RBX + APAP))	TRAE, Rosuvastatin-related [1, 3]
CC(=O)Nc1ccc(O)cc1 [Acetaminophen, acetaminophen]	0 n (%)	0 n (%)	–	–	–	–	–	–	–	–	–	–
CC(C)c1nc(N(C)S(C)(=O)=O)nc(-c2ccc(F)cc2)c1/C=C/[C@@H](O)C[C@@H](O)CC(=O)O [Rosuvastatin, rosuvastatin]	–	–	27,660 (56.1) h*pg/mL	36,090 (50.3) h*pg/mL	2307 (85.1) pg/mL	2.80 (84.7) h	31,730 (48.3) h*pg/mL	32,490 (49.4) h*pg/mL	2962 (61.9) pg/mL	2.72 (38.1) h	0 n (%)	0 n (%)
